# From paper PMC12621043, “Un-LOK-ing a New Approach for Conformational Selective Targeting of STK10 (LOK)” (ACS Medicinal Chemistry Letters, 2025)
# Target: T1, CSNK1EA (Homo sapiens, UniProt P49674)
# T1 construct: purchased in-house DSF kinase panel (SGC-style construct names; the trailing letter is the construct ID)
# T1 sequence (P49674 1-294): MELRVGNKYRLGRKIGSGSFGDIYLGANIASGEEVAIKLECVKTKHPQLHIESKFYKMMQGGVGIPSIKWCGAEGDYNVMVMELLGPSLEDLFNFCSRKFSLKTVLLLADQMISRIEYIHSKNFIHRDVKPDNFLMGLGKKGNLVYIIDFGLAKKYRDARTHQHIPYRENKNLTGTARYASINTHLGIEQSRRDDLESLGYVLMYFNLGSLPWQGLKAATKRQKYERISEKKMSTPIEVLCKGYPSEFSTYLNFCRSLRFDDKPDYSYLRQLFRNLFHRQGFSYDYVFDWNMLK
# Assay: DSF Tm panel
# Type: binding
# Settings: 10 μM compound
row,Compound,ΔTm at 10 µM [°C]
1,Cc1cc(Br)ccc1CNC(=O)Nc1ccc2cc1OCCOCCNc1ccn3ncc-2c3n1 [compound 24],0.7
2,O=C(NCc1ccc(C(F)(F)F)cc1)Nc1ccc2cc1OCCOCCNc1ccn3ncc-2c3n1 [compound 28],-0.2
3,COc1ccc(CNC(=O)Nc2ccc3cc2OCCOCCNc2ccn4ncc-3c4n2)cc1 [compound 31],0.6
4,COc1ccc(CNC(=O)Nc2ccc3cc2OCCOCCNc2ccn4ncc-3c4n2)cc1F [compound 32],0.3
5,C[C@H](NC(=O)Nc1ccc2cc1OCCOCCNc1ccn3ncc-2c3n1)c1ccccc1 [compound 34],0.4

# The next lines start with the values.
row,ΔTm at 10 µM [°C],Compound
1,0.7,Cc1ccc(F)cc1CNC(=O)Nc1ccc2cc1OCCOCCNc1ccn3ncc-2c3n1 [compound 26]
2,0,O=C(NCc1ccccc1C(F)(F)F)Nc1ccc2cc1OCCOCCNc1ccn3ncc-2c3n1 [compound 27]
3,0.7,COc1ccccc1CNC(=O)Nc1ccc2cc1OCCOCCNc1ccn3ncc-2c3n1 [compound 29]
4,0.7,COc1cccc(CNC(=O)Nc2ccc3cc2OCCOCCNc2ccn4ncc-3c4n2)c1 [compound 30]
5,0.6,COc1cc(CNC(=O)Nc2ccc3cc2OCCOCCNc2ccn4ncc-3c4n2)ccc1F [compound 33]

# Target: T2, FLT1A (Homo sapiens, UniProt P17948)
# T2 construct: purchased in-house DSF kinase panel (SGC-style construct names; the trailing letter is the construct ID)
# T2 sequence (P17948 801-1158): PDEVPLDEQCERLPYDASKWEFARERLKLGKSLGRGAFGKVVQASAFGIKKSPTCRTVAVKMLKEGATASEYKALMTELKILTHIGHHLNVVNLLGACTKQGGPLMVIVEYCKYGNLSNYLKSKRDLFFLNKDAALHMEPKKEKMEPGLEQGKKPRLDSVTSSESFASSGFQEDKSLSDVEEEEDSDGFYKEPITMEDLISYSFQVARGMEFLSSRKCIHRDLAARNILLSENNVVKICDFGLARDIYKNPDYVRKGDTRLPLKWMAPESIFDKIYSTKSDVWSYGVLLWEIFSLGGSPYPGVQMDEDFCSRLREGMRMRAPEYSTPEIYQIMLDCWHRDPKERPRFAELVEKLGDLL
# Assay: DSF Tm panel
# Type: binding
# Settings: 10 μM compound
row,Compound,ΔTm at 10 µM [°C]
1,O=C(NCc1cccc(Cl)c1)Nc1ccc2cc1OCCOCCNc1ccn3ncc-2c3n1 [compound 18],3.7
2,O=C(NCc1ccc(Cl)cc1)Nc1ccc2cc1OCCOCCNc1ccn3ncc-2c3n1 [compound 19],3.4
3,O=C(NCc1ccc(Cl)cc1Cl)Nc1ccc2cc1OCCOCCNc1ccn3ncc-2c3n1 [compound 20],1.4
4,O=C(NCc1ccc(Cl)cc1F)Nc1ccc2cc1OCCOCCNc1ccn3ncc-2c3n1 [compound 21],2.6
5,Cc1cc(Cl)ccc1CNC(=O)Nc1ccc2cc1OCCOCCNc1ccn3ncc-2c3n1 [compound 23],2
6,CN1CCN(C(=O)Nc2ccc3cc2OCCOCCNc2ccn4ncc-3c4n2)CC1 [compound 35],4.4

# The next lines start with the values.
row,ΔTm at 10 µM [°C],Compound
1,4.7,O=C(NCc1ccccc1)Nc1ccc2cc1OCCOCCNc1ccn3ncc-2c3n1 [compound 16]
2,2.1,O=C(NCc1ccccc1Cl)Nc1ccc2cc1OCCOCCNc1ccn3ncc-2c3n1 [compound 17]

# Target: T3, HIPK2HSF (Homo sapiens, UniProt Q9H2X6)
# T3 construct: purchased in-house DSF kinase panel (SGC-style construct names; the trailing letter is the construct ID)
# Assay: DSF Tm panel
# Type: binding
# Settings: 10 μM compound
# T3 sequence (Q9H2X6 199-527): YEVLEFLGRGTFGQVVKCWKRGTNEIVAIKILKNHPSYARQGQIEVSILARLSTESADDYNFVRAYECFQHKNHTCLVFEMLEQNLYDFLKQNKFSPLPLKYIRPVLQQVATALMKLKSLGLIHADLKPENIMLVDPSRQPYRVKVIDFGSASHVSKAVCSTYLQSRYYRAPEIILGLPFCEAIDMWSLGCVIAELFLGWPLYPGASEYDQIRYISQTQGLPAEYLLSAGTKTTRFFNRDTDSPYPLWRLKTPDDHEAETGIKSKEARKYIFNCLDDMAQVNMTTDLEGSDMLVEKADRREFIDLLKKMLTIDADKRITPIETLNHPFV
row,Compound,ΔTm at 10 µM [°C]
1,Cc1cc(Br)ccc1CNC(=O)Nc1ccc2cc1OCCOCCNc1ccn3ncc-2c3n1 [compound 24],0.2
2,O=C(NCc1ccc(C(F)(F)F)cc1)Nc1ccc2cc1OCCOCCNc1ccn3ncc-2c3n1 [compound 28],0.6
3,COc1ccc(CNC(=O)Nc2ccc3cc2OCCOCCNc2ccn4ncc-3c4n2)cc1 [compound 31],0.5
4,COc1ccc(CNC(=O)Nc2ccc3cc2OCCOCCNc2ccn4ncc-3c4n2)cc1F [compound 32],0.5
5,C[C@H](NC(=O)Nc1ccc2cc1OCCOCCNc1ccn3ncc-2c3n1)c1ccccc1 [compound 34],0.4

# Now from value to compound:
row,ΔTm at 10 µM [°C],Compound
1,0.4,Cc1ccc(F)cc1CNC(=O)Nc1ccc2cc1OCCOCCNc1ccn3ncc-2c3n1 [compound 26]
2,0.2,O=C(NCc1ccccc1C(F)(F)F)Nc1ccc2cc1OCCOCCNc1ccn3ncc-2c3n1 [compound 27]
3,0.5,COc1ccccc1CNC(=O)Nc1ccc2cc1OCCOCCNc1ccn3ncc-2c3n1 [compound 29]
4,0.4,COc1cccc(CNC(=O)Nc2ccc3cc2OCCOCCNc2ccn4ncc-3c4n2)c1 [compound 30]
5,0.5,COc1cc(CNC(=O)Nc2ccc3cc2OCCOCCNc2ccn4ncc-3c4n2)ccc1F [compound 33]

# Target: T4, PHKG2A (Homo sapiens, UniProt P15735)
# T4 construct: purchased in-house DSF kinase panel (SGC-style construct names; the trailing letter is the construct ID)
# T4 sequence (P15735 6-293): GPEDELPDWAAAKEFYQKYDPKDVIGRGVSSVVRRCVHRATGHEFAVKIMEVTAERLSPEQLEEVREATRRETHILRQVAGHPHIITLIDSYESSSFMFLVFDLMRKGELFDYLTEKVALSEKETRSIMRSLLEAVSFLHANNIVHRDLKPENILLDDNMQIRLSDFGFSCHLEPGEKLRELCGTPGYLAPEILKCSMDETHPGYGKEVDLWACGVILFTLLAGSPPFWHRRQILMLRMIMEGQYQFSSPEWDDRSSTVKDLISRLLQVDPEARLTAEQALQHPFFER
# Assay: DSF Tm panel
# Type: binding
# Settings: 10 μM compound
row,Compound,ΔTm at 10 µM [°C]
1,O=C(NCc1cccc(Cl)c1)Nc1ccc2cc1OCCOCCNc1ccn3ncc-2c3n1 [compound 18],0.4
2,O=C(NCc1ccc(Cl)cc1)Nc1ccc2cc1OCCOCCNc1ccn3ncc-2c3n1 [compound 19],1.2
3,O=C(NCc1ccc(Cl)cc1Cl)Nc1ccc2cc1OCCOCCNc1ccn3ncc-2c3n1 [compound 20],0.8
4,O=C(NCc1ccc(Cl)cc1F)Nc1ccc2cc1OCCOCCNc1ccn3ncc-2c3n1 [compound 21],0.9
5,Cc1cc(Cl)ccc1CNC(=O)Nc1ccc2cc1OCCOCCNc1ccn3ncc-2c3n1 [compound 23],0.5
6,CN1CCN(C(=O)Nc2ccc3cc2OCCOCCNc2ccn4ncc-3c4n2)CC1 [compound 35],-0.1

# Results, then the compound that gave them:
row,ΔTm at 10 µM [°C],Compound
1,1.3,O=C(NCc1ccccc1)Nc1ccc2cc1OCCOCCNc1ccn3ncc-2c3n1 [compound 16]
2,0.6,O=C(NCc1ccccc1Cl)Nc1ccc2cc1OCCOCCNc1ccn3ncc-2c3n1 [compound 17]

# Tested on: RPS6KA6A
# Assay: DSF Tm panel
# Type: binding
# Settings: 10 μM compound
row,Compound,ΔTm RPS6KA6A
1,O=C(NCc1ccccc1)Nc1ccc2cc1OCCOCCNc1ccn3ncc-2c3n1 [compound 16],"-1,2 °C"
2,O=C(NCc1ccccc1Cl)Nc1ccc2cc1OCCOCCNc1ccn3ncc-2c3n1 [compound 17],"-0,3 °C"
3,O=C(NCc1cccc(Cl)c1)Nc1ccc2cc1OCCOCCNc1ccn3ncc-2c3n1 [compound 18],"-0,3 °C"
4,O=C(NCc1ccc(Cl)cc1)Nc1ccc2cc1OCCOCCNc1ccn3ncc-2c3n1 [compound 19],"-0,2 °C"
5,O=C(NCc1ccc(Cl)cc1Cl)Nc1ccc2cc1OCCOCCNc1ccn3ncc-2c3n1 [compound 20],"0,5 °C"
6,O=C(NCc1ccc(Cl)cc1F)Nc1ccc2cc1OCCOCCNc1ccn3ncc-2c3n1 [compound 21],"-0,7 °C"
7,Cc1cc(Cl)ccc1CNC(=O)Nc1ccc2cc1OCCOCCNc1ccn3ncc-2c3n1 [compound 23],"-0,3 °C"
8,CN1CCN(C(=O)Nc2ccc3cc2OCCOCCNc2ccn4ncc-3c4n2)CC1 [compound 35],"-0,3 °C"

# Target: T5, TIF1A (Homo sapiens, UniProt O15164)
# T5 construct: purchased in-house DSF kinase panel (SGC-style construct names; the trailing letter is the construct ID)
# T5 sequence (O15164 1-1050): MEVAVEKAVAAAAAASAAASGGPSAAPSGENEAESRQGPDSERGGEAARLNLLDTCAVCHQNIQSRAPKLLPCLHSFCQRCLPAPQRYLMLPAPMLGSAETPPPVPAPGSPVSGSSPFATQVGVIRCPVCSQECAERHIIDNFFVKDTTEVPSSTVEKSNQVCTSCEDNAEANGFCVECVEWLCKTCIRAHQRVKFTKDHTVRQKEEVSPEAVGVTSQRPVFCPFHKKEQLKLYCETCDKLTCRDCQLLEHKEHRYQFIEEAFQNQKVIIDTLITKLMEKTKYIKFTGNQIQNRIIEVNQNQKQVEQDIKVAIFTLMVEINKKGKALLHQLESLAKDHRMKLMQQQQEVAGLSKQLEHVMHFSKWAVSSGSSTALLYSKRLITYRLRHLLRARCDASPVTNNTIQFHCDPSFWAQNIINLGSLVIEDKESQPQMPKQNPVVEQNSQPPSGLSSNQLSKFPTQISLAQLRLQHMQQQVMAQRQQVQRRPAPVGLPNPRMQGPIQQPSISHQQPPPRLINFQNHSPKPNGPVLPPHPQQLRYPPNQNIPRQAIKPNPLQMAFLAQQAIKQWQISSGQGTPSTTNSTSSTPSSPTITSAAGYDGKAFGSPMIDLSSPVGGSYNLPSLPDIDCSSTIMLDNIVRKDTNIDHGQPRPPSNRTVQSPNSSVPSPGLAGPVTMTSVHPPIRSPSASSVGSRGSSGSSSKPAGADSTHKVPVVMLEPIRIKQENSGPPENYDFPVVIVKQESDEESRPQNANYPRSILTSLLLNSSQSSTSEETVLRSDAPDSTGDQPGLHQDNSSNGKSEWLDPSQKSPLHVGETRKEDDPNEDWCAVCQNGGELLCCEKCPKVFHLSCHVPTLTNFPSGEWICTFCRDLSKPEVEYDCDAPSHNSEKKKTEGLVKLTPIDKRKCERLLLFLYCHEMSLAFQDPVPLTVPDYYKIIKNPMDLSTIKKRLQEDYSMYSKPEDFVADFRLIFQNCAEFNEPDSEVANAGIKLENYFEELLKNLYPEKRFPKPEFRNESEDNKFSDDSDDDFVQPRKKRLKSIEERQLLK
# Assay: DSF Tm panel
# Type: binding
# Settings: 10 μM compound
row,Compound,ΔTm at 10 µM [°C]
1,Cc1cc(Br)ccc1CNC(=O)Nc1ccc2cc1OCCOCCNc1ccn3ncc-2c3n1 [compound 24],1
2,O=C(NCc1ccc(C(F)(F)F)cc1)Nc1ccc2cc1OCCOCCNc1ccn3ncc-2c3n1 [compound 28],1.6
3,COc1ccc(CNC(=O)Nc2ccc3cc2OCCOCCNc2ccn4ncc-3c4n2)cc1 [compound 31],0.2
4,COc1ccc(CNC(=O)Nc2ccc3cc2OCCOCCNc2ccn4ncc-3c4n2)cc1F [compound 32],0.5
5,C[C@H](NC(=O)Nc1ccc2cc1OCCOCCNc1ccn3ncc-2c3n1)c1ccccc1 [compound 34],-0.1

# Results, then the compound that gave them:
row,ΔTm at 10 µM [°C],Compound
1,0.4,Cc1ccc(F)cc1CNC(=O)Nc1ccc2cc1OCCOCCNc1ccn3ncc-2c3n1 [compound 26]
2,1.3,O=C(NCc1ccccc1C(F)(F)F)Nc1ccc2cc1OCCOCCNc1ccn3ncc-2c3n1 [compound 27]
3,0.5,COc1ccccc1CNC(=O)Nc1ccc2cc1OCCOCCNc1ccn3ncc-2c3n1 [compound 29]
4,0.3,COc1cccc(CNC(=O)Nc2ccc3cc2OCCOCCNc2ccn4ncc-3c4n2)c1 [compound 30]
5,0.6,COc1cc(CNC(=O)Nc2ccc3cc2OCCOCCNc2ccn4ncc-3c4n2)ccc1F [compound 33]
